Key:
[1] = target: T1, H-Ras(M72C) bound to either GDP or GppNHp (Homo sapiens, UniProt P01112, M72C); test: Electrophile labeling experiments (percent modification by whole protein LC/MS); type: binding
T1 construct: Labeling studies were conducted using the 1-166 H-Ras(M72C) construct containing all endogenous cysteines; His6; made in house; host or cells: Escherichia coli BL21(DE3)
Procedure: Electrophile Labeling Experiments.
Each reaction was analyzed in a 96 well plate format for analysis by LC/MS. Total reaction volumes were 25 μL for single time point labeling experiments and 200 uL for full 24-hour time courses. 25 μL reactions were made in the wells of a V-bottom 96 well plate and 200 uL reactions were made in 1.25 mL eppendorf tubes. All labeling reactions were conducted in Gel Filtration Buffer (20 mM HEPES (pH 7.5), 150 mM NaCl) with no added reductant at room temperature. […] Electrophile stocks were made in DMSO at 10 mM, aliquoted, and frozen. Labeling reactions were started by the addition of the desired volume of 10 mM electrophile stock and mixed thoroughly by pipette. General screening of new electrophiles was done at 100 μM electrophile in triplicate and sampled as a single time point after 24 hours of incubation. For Compound 3, labeling time courses were conducted at 20 μM compound with sampling done every 2 hours for the first 10 hours of incubation and continued after overnight incubation until the protein was fully modified. Reactions were allowed to sit at room temperature in the dark (either covered in aluminum foil or in a bench drawer) until the desired time point was reached. For 24-hour single point labeling experiments, the reaction was directly sampled from the 96 well plate and analyzed by LC/MS. For experiments with multiple time points, 22.5 μL aliquots of the 200 μL master reaction were sampled and quenched by the addition of 2.5 μL of 2% formic acid (also made in Gel Filtration Buffer). This 25 μL quenched sample was then analyzed by LC/MS and the remaining master reaction was allowed to continue reacting after gentle mixing by pipette. The percent modification was analyzed by electrospray mass spectrometry using a Waters Acquity UPLC/ESI-TQD with a 2.1×50 mm Acquity UPLC BEH300 C4 column.

[2] = target: T2, p110d/p85a (PI3K-d) activation by H-Ras-GTP (Homo sapiens, UniProt P01112, C118S/G12V/M72C); test: PI3K lipid kinase assay with membrane-coupled H-Ras (Transcreener ADP2 FI); type: biochemical; conditions: with pY phosphopeptide; H-Ras(G12V) alone gave 20-fold
T2 construct: Plasmids expressing 1-181 H-Ras(G12V/C118S) and H-Ras(G12V/M72C/C118S); His tag (purified on HisTrap, TEV-cleavable) (cleaved yes); made in house; host or cells: Escherichia coli BL21 DE3 (H-Ras)
Procedure: Purification and Modification of H-Ras Constructs for Lipid Kinase Assays. Plasmids expressing 1-181 H-Ras(G12V/C118S) and H-Ras(G12V/M72C/C118S) were transformed into BL21 DE3 and the culture was induced at OD 0.6-0.9 with […] IPTG. The cultures were then allowed to grow for 4 h at 37° C. after which the cells were pelleted and stored at −80° C. Frozen pellets were re-suspended in lysis buffer and lysed by sonication (10s ON; 10s OFF; Power-6.0). Triton-X was added to a final concentration of 0.1% and lysate was centrifuged at 20,000 g for 45 minutes (Beckman Coulter Avanti J-251, JA 25.50 rotor). The supernatant was loaded on a 5 mL HisTrapTm FF column (GE Healthcare) equilibrated with buffer containing 10 mM imidazole pH 8.0 (NiNTA A). Following washes with 20 mL NiNTA A and 20 mL of 6% buffer containing 200 mM imidazole pH 8.0 (NiNTA B), the protein was eluted in 100% NiNTA B. The elution was buffer exchanged with NiNTA A buffer in a 10,000 MWCO Amicon concentrator (Millipore). The sample was concentrated down to <2 mL and TEV protease was added to −0.3 mg/mL. The cleavage was allowed to proceed overnight at 4° C. To de-enrich the TEV protease, the protein solution was loaded onto a HisTrapTm FF column and eluted with 10 mL of NiNTA A buffer. The elution was concentrated to −2 mL. […]

[3] = target: T3, 1-181 H-Ras(G12V/M72C/C118S) (Homo sapiens, UniProt P01112, C118S/G12V/M72C); test: Coupling of Compound 3 to H-Ras M72C construct for lipid kinase assays; type: binding; conditions: M72C construct with 200-250 Compound 3, 72 hours, 4° C.
T3 construct: Plasmids expressing 1-181 H-Ras(G12V/C118S) and H-Ras(G12V/M72C/C118S); His tag (purified on HisTrap, TEV-cleavable) (cleaved yes); made in house; host or cells: Escherichia coli BL21 DE3
Procedure: Coupling to inhibitor was done in a reaction containing […], 100 mM TCEP, 1 mM MgCl2 and […] Compound 3. DMSO was adjusted to a final concentration of 5%. After 24 hours, more inhibitor was added to a total final concentration of […]. The coupling was allowed to proceed for −72 hours at 4° C. Coupling efficiency was −70%. The coupled protein was exchanged with gel filtration buffer and loaded with GTPgS in the same manner as the H-Ras(G12V) construct. The protein was then run on a Superdex™ 75 10/300 GL size-exclusion column (GE Healthcare) equilibrated in Ras gel filtration buffer to remove excess nucleotide.

Structure (SMILES): C=CC(=O)Nc1cc(Cl)cc(NC(=O)c2cnn(-c3ccc(OC)cc3)c2C(F)(F)F)c1 [Compound 3, N-(3-acrylamido-5-chlorophenyl)-1-(4-methoxyphenyl)-5-(trifluoromethyl)-1H-pyrazole-4-carboxamide]
- Percent modification (labeling of Cys 72) ([1]; 4 μM H-Ras(M72C) GDP or GppNHp, 100 μM electrophile, 24 hours): improved covalent binding
- labeling of the GDP state ([1]; H-Ras(M72C) GDP, 20 μM electrophile (1:5 Ras to Compound 3), time course): rapidly and fully labels the GDP state
- modification of the GppNHp state ([1]; H-Ras(M72C) GppNHp, 20 μM electrophile (1:5 Ras to Compound 3)): 88.7%
- activation of PI3K-d activity by H-Ras(G12V/M72C) bound to compound [2]: ~3 fold
- Coupling efficiency [3]: 70%

Reference: patent US11136297B2, “Compositions and methods for treating cancer” (THE REGENTS OF THE UNIVERSITY OF CALIFORNIA, priority 2016, dated 2021)
